Data on one compound can be found in patent US7135476B2, “Spiro tetrahydroquinazolines and dihydrocyclopentapyrimidines as CRF antagonists” (Roche Palo Alto LLC, priority 2003, dated 2006).

In general, Ki refers to the equilibrium dissociation constant of an inhibitor or competing ligand from its target.

The target in this test is T1, CRF1 Receptor (Homo sapiens, UniProt P34998).
T1 construct: endogenous in cells; host or cells: IMR-32 human neuroblastoma cells (membrane preparation)
T1 sequence (P34998 24-415): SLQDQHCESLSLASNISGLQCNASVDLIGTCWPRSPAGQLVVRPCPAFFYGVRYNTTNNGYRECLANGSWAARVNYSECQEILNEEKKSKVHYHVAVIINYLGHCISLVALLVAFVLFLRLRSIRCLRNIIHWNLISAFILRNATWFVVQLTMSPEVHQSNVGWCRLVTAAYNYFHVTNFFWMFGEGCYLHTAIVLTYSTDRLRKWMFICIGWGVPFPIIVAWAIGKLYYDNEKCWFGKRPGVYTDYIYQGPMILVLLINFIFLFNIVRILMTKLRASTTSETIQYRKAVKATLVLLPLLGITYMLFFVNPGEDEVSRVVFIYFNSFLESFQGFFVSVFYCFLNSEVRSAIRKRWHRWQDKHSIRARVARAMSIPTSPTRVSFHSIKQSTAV
The test can be described thus: CRF1 Receptor Binding Assay. The following applies: competition with [125I]Tyr0-ovine CRF, human IMR-32 neuroblastoma cell membranes; pKi derived from pIC50. Here is the method:
CRF1 Receptor Binding Assay
Human IMR-32 neuroblastoma cells are grown to 80% confluence in MEM medium containing 10% heat-inactivated FBS, 1 mM Sodium Pyruvate, and 0.1 mM nonessential amino acids. Cell membranes are prepared according the method of Dieterich and DeSouza (1996). The cells (˜5E+9) are resuspended in 10 volumes of wash buffer (5 mM Tris HCl, 10 mM MgCl2, 2 mM EGTA, pH 7.4 at RT), homogenized with a Polytron, and then centrifuged at 45,000 G for 20 min at 4° C. The membrane pellets are washed twice with wash buffer (45,000 G for 20 min at 4° C.) and then resuspended (50 mM Tris HCl, 10 mM MgCl2, 2 mM EGTA, pH 7.4 at RT). Protein concentration is determined using Pierce reagents and BSA as standard. […]
The competition binding assay is performed in a final volume of 250 μl, which contains assay buffer (50 mM Tris-HCl, 10 mM MgCl2, 2 mM EGTA, 0.2% BSA, 0.1 mM bacitracin and 100 kIU/mL aprotinin pH 7.2 at R.T.), 0.05 nM [^125I]Tyr^0-ovine CRF (Du Pont New England Nuclear), 50 μg of membrane protein, and test compound at various concentrations. Non-specific binding is determined with 1 uM hCRF. […] Unbound radioactivity is removed by four rapid washes (0.8 ml/well) with wash buffer. The radioactivity is quantified using a Packard TopCount. Data are analyzed using non-linear iterative curve fitting to obtain IC50 and Hill slope values. […]

`CCCN(CC1CC1)c1nc(C)nc2c1CCCC21CCc2ccccc21` (stereo not shown) [Compound 1, (2,3,5′,6′,-Tetrahydro)-2′-methyl-4′-(N-propyl-N-cyclo-propylmethyl-amino)spiro[(1H)indene-1,8′-(7H)quina-zoline]] showed a Ki of 123 nM.
